Measured values as given in patent US20260209214A1, “LSD1 MODULATORS” (RECURSION PHARMACEUTICALS, INC., priority 2022, published 2026).

Biological target: Recombinant human LSD1 (Homo sapiens, UniProt O60341)
Test: LSD1 inhibition assay (HTRF LSD1 Histone H3K4 mono-demethylation assay, me1->me0)
Assay type: biochemical
Conditions: 20 nM recombinant human LSD1, 95 nM H3K4(me1) biotinylated peptide, 15 min preincubation, 60 min at 25° C., read-out: LSD1 inhibition IC50 (nM range)
Experimental: LSD1 biochemical activity was measured using the HTRF® LSD1 Histone H3K4 mono-demethylation assay (me1->me0). Briefly, the enzymatic buffer was prepared by addition of 50 mM Tris-HCl (Sigma cat #T2663-IL), 50 mM NaCl (ThermoFisher cat #AM9759) and 0.01% Tween 20 (ThermoFisher cat #J20605.AP) in distilled water (final pH 8.5). This buffer was supplemented with 10 μM FAD (Fisher Scientific cat #11411838) and 1 mM DTT (Sigma cat #D0632). For the assay, H3K4(me1) biotinylated peptide substrate (Anaspec, cat #64355) was added to provide a final assay concentration of 95 nM. The streptavidin-XL665 (Cisbio cat #610SAXLA) and H3K4 me0-Eu(K) antibody-cryptate (Cisbio, cat #61 KAOKAD) detection reagents were mixed according to the manufacturer's instructions. Test compounds were diluted in DMSO in a series of 10 semi-log step doses; 10 nL of each compound dose were dispensed in 384 well plates. Recombinant human LSD1 was diluted into enzymatic buffer to provide a final assay concentration of 20 nM and added to the tested compounds for 15 minutes. The reaction was started by addition of the substrate and incubated at 25° C. for 60 minutes. The detection reagents were added, and the plate was incubated in the dark for 90 minutes. Fluorescence was measured on an Envision 2103 plate reader with optical setup for […] in the HTRF mode. The ratio of acceptor and donor emission signals was calculated for each well. Percent inhibition values were calculated from the HTRF ratios at different doses and fitted to a 4-parameter logistic curve to determine IC50 values. […]

SMILES	IC50 [nM]
Cc1cccc(-c2ccc(CN3[C@@H]4CC[C@H]3[C@@H](N)C4)cc2-c2ccc(C#N)c(F)c2)n1 (racemic) [Example 256, 5'-{[(1S,2S,4R)-2-amino-7-azabicyclo[2.2.1]heptan-7-yl]methyl}-3-fluoro-2'-(6-methylpyridin-2-yl)-[1,1'-biphenyl]-4-carbonitrile]	25 to 100
N#Cc1ccc(-c2cccc(CC3CNCCO3)c2-c2cncs2)cc1F (stereo not drawn) [Example 48, 3-fluoro-3′-[(morpholin-2-yl)methyl]-2′-(1,3-thiazol-5-yl)-[1,1′-biphenyl]-4-carbonitrile]	10 to 25
CN[C@H]1C[C@H]2CC[C@@H]1N2Cc1cccc(-c2ccc(C#N)cc2)c1-c1ccns1 (single isomer, unassigned) [Example 182]	< 10
N#Cc1ccc(-c2cccc(CN3[C@@H]4CC[C@H]3[C@@H](N)C4)c2C2CC2)cc1 (racemic) [Example 191, 3'-{[(1S,2S,4R)-2-amino-7-azabicyclo[2.2.1]heptan-7-yl]methyl}-2'-cyclopropyl-[1,1'-biphenyl]-4-carbonitrile]	25 to 100
Cc1c(CN2[C@@H]3CC[C@H]2[C@@H](N)C3)cccc1-c1ccc(C#N)c(F)c1 (racemic) [Example 306, 3'-{[(1S,2S,4R)-2-amino-7-azabicyclo[2.2.1]heptan-7-yl]methyl}-3-fluoro-2'-methyl-[1,1'-biphenyl]-4-carbonitrile]	100 to 1000
N#Cc1ccc(-c2cc(CN3[C@@H]4CC[C@H]3[C@@H](N)C4)ccc2OCC(F)(F)F)cc1F (racemic) [Example 316, 5'-{[(1S,2S,4R)-2-amino-7-azabicyclo[2.2.1]heptan-7-yl]methyl}-3-fluoro-2'-(2,2,2-trifluoroethoxy)-[1,1'-biphenyl]-4-carbonitrile]	10 to 25
N#Cc1ccc(-c2cc(CN3[C@@H]4CC[C@H]3[C@@H](N)C4)ccc2-c2ccns2)cc1F (racemic) [Example 314, 5'-{[(1S,2S,4R)-2-amino-7-azabicyclo[2.2.1]heptan-7-yl]methyl}-3-fluoro-2'-(1,2-thiazol-5-yl)-[1,1'-biphenyl]-4-carbonitrile]	10 to 25
N#Cc1ccc(-c2cc(CN3[C@@H]4CC[C@H]3[C@@H](N)C4)ccc2-c2ccsn2)cc1F (racemic) [Example 252, 5'-{[(1S,2S,4R)-2-amino-7-azabicyclo[2.2.1]heptan-7-yl]methyl}-3-fluoro-2'-(1,2-thiazol-3-yl)-[1,1'-biphenyl]-4-carbonitrile]	25 to 100
N#Cc1ccc(-c2cccc(CC3CNCCO3)c2-c2cnccn2)cc1F (stereo not drawn) [Example 128, 3-fluoro-3′-[(morpholin-2-yl)methyl]-2′-(pyrazin-2-yl)-[1,1′-biphenyl]-4-carbonitrile]	25 to 100
N#Cc1ccc(-c2cccc(CC3CNCCO3)c2-n2cccn2)cc1F (stereo not drawn) [Example 90, 2-fluoro-4-[3-(morpholin-2-ylmethyl)-2-pyrazol-1-yl-phenyl]benzonitrile]	> 1000
COc1c(CN2[C@@H]3CC[C@H]2[C@@H](N)C3)cccc1-c1ccc(C#N)c(F)c1 (racemic) [Example 180, 3'-{[(1S,2S,4R)-2-amino-7-azabicyclo[2.2.1]heptan-7-yl]methyl}-3-fluoro-2'-methoxy-[1,1'-biphenyl]-4-carbonitrile]	25 to 100
COCC1CCN(c2ccc(CN3C[C@]4(N)CC[C@H]3C4)cc2-c2ccc(C#N)c(F)c2)CC1 [Example 216, 5'-{[(1S,4S)-4-amino-2-azabicyclo[2.2.1]heptan-2-yl]methyl}-3-fluoro-2'-[4-(methoxymethyl)piperidin-1-yl]-[1,1'-biphenyl]-4-carbonitrile]	< 10
N#Cc1ccc(-c2cccc(CN3[C@@H]4CC[C@H]3[C@@H](N)C4)c2N2CCC(F)CC2)cc1F (racemic) [Example 241, 3'-{[(1S,2S,4R)-2-amino-7-azabicyclo[2.2.1]heptan-7-yl]methyl}-3-fluoro-2'-(4-fluoropiperidin-1-yl)-[1,1'-biphenyl]-4-carbonitrile]	100 to 1000
N#Cc1ccc(-c2cc(C3CNCCO3)ccc2N2CCCCC2)cc1F (stereo not drawn) [Example 168, 3-fluoro-5′-(morpholin-2-yl)-2′-(piperidin-1-yl)-[1,1′-biphenyl]-4-carbonitrile]	100 to 1000
N#Cc1ccc(-c2cccc(CN3C[C@]4(N)CC[C@H]3C4)c2-c2ocnc2F)cc1F [Example 174, 3'-{[(1S,4S)-4-amino-2-azabicyclo[2.2.1]heptan-2-yl]methyl}-3-fluoro-2'-(4-fluoro-1,3-oxazol-5-yl)-[1,1'-biphenyl]-4-carbonitrile]	10 to 25
N#Cc1ccc(-c2cc(CC3CNCCO3)ccc2N2CCn3nc(C4CC4)cc3C2)cc1F (stereo not drawn) [Example 97, 2′-{2-cyclopropyl-4H,5H,6H,7H-pyrazolo[1,5-a]pyrazin-5-yl}-3-fluoro-5′-[(morpholin-2-yl)methyl]-[1,1′-biphenyl]-4-carbonitrile]	> 1000
COc1ccc(-c2ccc(CC3CNCCO3)cc2-c2ccc(C#N)c(F)c2)cc1F (stereo not drawn) [Example 98, 3-fluoro-2′-(3-fluoro-4-methoxyphenyl)-5′-[(morpholin-2-yl)methyl]-[1,1′-biphenyl]-4-carbonitrile]	100 to 1000

Results, then the compound that gave them:

IC50 [nM]	SMILES
25 to 100	CN1CC2CN(Cc3cccc(-c4ccc(C#N)c(F)c4)c3C3CC3)CC21 (stereo not drawn) [Example 277, 2'-cyclopropyl-3-fluoro-3'-({6-methyl-3,6-diazabicyclo[3.2.0]heptan-3-yl}methyl)-[1,1'-biphenyl]-4-carbonitrile]
> 1000	CN1CCC12CCN(Cc1c(F)ccc(-c3ccc(C#N)c(F)c3)c1F)C2 (stereo not drawn) [Example 290, 2', 3,4'-trifluoro-3'-({1-methyl-1,6-diazaspiro[3.4]octan-6-yl}methyl)-[1,1'-biphenyl]-4-carbonitrile]
100 to 1000	Cc1cc(CN2C[C@@H]3[C@@H](N)[C@@H]3C2)c(Cl)c(-c2ccc(C#N)c(F)c2)c1 [Example 347, 3'-{[(1R,5S,6R)-6-amino-3-azabicyclo[3.1.0]hexan-3-yl]methyl}-2'-chloro-3-fluoro-5'-methyl-[1,1'-biphenyl]-4-carbonitrile]
100 to 1000	N#Cc1ccc(-c2cccc(CN3CC4(CCNCC4)C3)c2Cl)cc1F [Example 288, 2'-chloro-3'-({2,7-diazaspiro[3.5]nonan-2-yl}methyl)-3-fluoro-[1,1'-biphenyl]-4-carbonitrile]
25 to 100	N#Cc1ccc(-c2cccc(CN3CC[C@@H]4NCC[C@@H]43)c2C2CC2)cc1F [Example 273, 3'-{[(3aS,6aS)-octahydropyrrolo[3,2-b]pyrrol-1-yl]methyl}-2'-cyclopropyl-3-fluoro-[1,1'-biphenyl]-4-carbonitrile]
> 1000	CN1CCN(Cc2ccc(N3CCC3)c(-c3ccc(C#N)c(F)c3)c2)CC1 [Example 296, 2'-(azetidin-1-yl)-3-fluoro-5'-[(4-methylpiperazin-1-yl)methyl]-[1,1'-biphenyl]-4-carbonitrile]
25 to 100	N#Cc1ccc(-c2cc(CN3C[C@]4(N)CC[C@H]3C4)ccc2C2CC2)cc1F [Example 308, 5'-{[(1S,4S)-4-amino-2-azabicyclo[2.2.1]heptan-2-yl]methyl}-2'-cyclopropyl-3-fluoro-[1,1'-biphenyl]-4-carbonitrile]
25 to 100	CN[C@H]1CCCN(Cc2cccc(-c3ccc(C#N)c(F)c3)c2C2CC2)CC1 [Example 215, 2'-cyclopropyl-3-fluoro-3'-{[(4S)-4-(methylamino)azepan-1-yl]methyl}-[1,1'-biphenyl]-4-carbonitrile]
100 to 1000	CC(C)N1CCOC(Cc2ccc(N3CCC3)c(-c3ccc(C#N)c(F)c3)c2)C1 (stereo not drawn) [Example 163, 2′-(azetidin-1-yl)-3-fluoro-5′-{[4-(propan-2-yl)morpholin-2-yl]methyl}-[1,1′-biphenyl]-4-carbonitrile]
25 to 100	N#Cc1ccc(-c2cc(F)cc(CC3CNCCO3)c2-c2cnco2)cc1F (stereo not drawn) [Example 49, 3,5′-difluoro-3′-[(morpholin-2-yl)methyl]-2′-(1,3-oxazol-5-yl)-[1,1′-biphenyl]-4-carbonitrile]
> 1000	N#Cc1ccc(-c2cccc(CN3CCCC34CCCNC4)c2Cl)cc1F (stereo not drawn) [Example 327, 2'-chloro-3'-({1,7-diazaspiro[4.5]decan-1-yl}methyl)-3-fluoro-[1,1'-biphenyl]-4-carbonitrile]
100 to 1000	Cc1cc(CNCC2CCCNC2)c(Cl)c(-c2ccc(C#N)c(F)c2)c1 (stereo not drawn) [Example 348, 2'-chloro-3-fluoro-5'-methyl-3'-({[(piperidin-3-yl)methyl]amino}methyl)-[1,1'-biphenyl]-4-carbonitrile]
100 to 1000	N#Cc1ccc(-c2cccc(CN3CC4CNCC3C4)c2Cl)cc1F (stereo not drawn) [Example 238, 2'-chloro-3'-({3,6-diazabicyclo[3.2.1]octan-6-yl}methyl)-3-fluoro-[1,1'-biphenyl]-4-carbonitrile]
